Reference: BigSolDB 2.1

CC(CO)(CO)CO
solubility (mole fraction)
Settings	283.15 K	288.15 K	293.15 K	298.15 K	303.15 K	311.05 K	313.15 K	318.15 K
in ethyl acetate	0.00205	0.00263	0.00335	0.00433	0.00528	0.00673	0.00841	0.0105
in methyl acetate	0.0026	0.00317	0.00398	0.00512	0.00638	0.00801	0.00997	0.013
in n-butanol	0.0386	0.0449	0.0535	0.0634	0.0769	0.0914	0.11	0.131
